Several values for one entry are separate records, joined by “and”; a condition that tells them apart may be missing. Equal values may be shown once.
How the values were obtained:
[1] = Log D7.4 measurement (1-octanol/PBS buffer); assay type: physicochemical; conditions: pH 7.4, n=3
Description: Partition coefficient was measured by mixing the [^18F]FS1P1 sample with 3 mL each of 1-octanol and buffer that is 0.1 M phosphate and pH equals 7.4 in a test tube. The mixture in the test tube was vortexed for 20 sec followed by centrifugation for 1 min at room temperature. Then 2 mL of the organic layer was transferred to a second test tube, and 1 mL of 1-octanol and 3 mL of PBS buffer were added. The resulting mixture was vortexed for 20 sec, followed by centrifugation for 1 min at room temperature. Then 1 mL of the organic and aqueous layer were taken separately for measurement. The radioactivity content values (count per minute) of two samples (1 mL each) from the 1-octanol and buffer layers were counted using a gamma counter. The partition coefficient Log D7.4 was determined by calculating as the decimal logarithm the ratio of cpm/mL between 1-octanol and PBS buffer. The measurements were repeated three times. The value of the partition coefficient is 2.62±0.31.

[2] = Ex vivo biodistribution study in Sprague Dawley rats; conditions: SD rats
Description: To evaluate the kinetics and the tissue distribution of [^18F]FS1P1 in rodents, Sprague Dawley (SD) male rats (6-7 weeks old; 200-300 g) were used and euthanized at 5, 30, 60, and 120 min post-injection. The radioactivity uptake of each organ was calculated as percentage injected dose per gram (% ID/gram). As shown in FIG. 7A-FIG. 7B, the initial tracer uptake was high in most tissues at 5 min. The liver had the highest uptake (% ID/g) at 3.04±0.18, whereas the heart, lung, spleen, kidney, and small intestine had moderate to high uptake at 1.39±0.15, 1.44±0.13, 1.14±0.13, 1.76±0.15, and 1.00±0.21 respectively. The radioactivity was rapidly washed out from heart, lung, pancreas, spleen, kidney, and liver, at 30 min post injection with ID %/g values decreasing to 0.55±0.02, 0.84±0.05, 0.66±0.04, 0.54±0.03, 1.13±0.66, and 2.51±0.10 respectively as shown in FIG. 7A.
A dose of [^18F]FS1P1 (˜3.7 MBq/100 μL) was injected via the tail vein into SD rats (male; 6-7 weeks old; 200-300 g). Rats were euthanized under anesthesia at 5, 30, 60, and 120 min post-injection (n=4 per group). Tissues of interest including blood, heart, lung, muscle, fat, pancreas, spleen, kidney, liver, brain, bone, thymus, small intestine, and large intestine were collected, weighed, and counted on an automated Beckman Gamma counter (Beckman, Brea, CA). To evaluate the uptake of [^18F]FS1P1 within the brain, brain dissection was performed and different brain regions including brain stem, cerebellum, cortex, striatum, thalamus, and hippocampus were collected and evaluated. The uptake of each organ was calculated and expressed as a percentage of the injection dose per gram of wet tissue (% ID per gram).

[3] = Radiometabolite analysis of nonhuman primate plasma samples; assay type: in vivo, macaque; conditions: for percentage of the parental radiotracer of total radioactivity: macaque plasma
Description: HPLC radiometabolite analysis of the macaque plasma samples collected at different time points post-injection of [^18F]FS1P1 was performed as previously reported (H. Liu, et al., Mol. Imaging Biol., 2020, 22, 1362-1369.). A male macaque (˜10 kg) was intravenously injected with ˜0.35 GBq of [^18F]FS1P1. […] Plasma (400 μL) was then collected and mixed with 1.2 mL ice-cold acetonitrile to deproteinize. […] The eluted fractions were collected at one-minute intervals for a total of 16 minutes, the radioactivity of each fraction collection was counted in an automated gamma counter (Beckman, Brea, CA), and results were corrected by background radioactive counts and physical decay. The chromatography was regenerated represented by the percentage that was calculated by radioactivity count of every minute collection divided by the total injection amount on the HPLC system and multiplied by 100.

Cc1ccccc1-c1ccc(-c2nc(-c3ccc(CN(C)CCC(=O)O)c([18F])c3)no2)cc1C(F)(F)F [[^18F]FS1P1]
Log D7.4 [1]: 2.62±0.31 | logD [1]: 2.62 ± 0.31 | Tissue uptake (% ID/g) ([2]; Blood, 5 min post-injection): 0.16 ± 0.09 % ID/g | Tissue uptake (% ID/g) ([2]; Blood, 30 min post-injection): 0.13 ± 0.01 % ID/g | Tissue uptake (% ID/g) ([2]; Blood, 60 min post-injection): 0.13 ± 0.01 % ID/g | Tissue uptake (% ID/g) ([2]; Blood, 120 min post-injection): 0.10 ± 0.01 % ID/g | Tissue uptake (% ID/g) ([2]; Bone, 5 min post-injection): 0.20 ± 0.13 % ID/g | Tissue uptake (% ID/g) ([2]; Bone, 30 min post-injection): 0.16 ± 0.01 % ID/g | Tissue uptake (% ID/g) ([2]; Bone, 60 min post-injection): 0.15 ± 0.02 % ID/g | Tissue uptake (% ID/g) ([2]; Bone, 120 min post-injection): 0.11±0.02 % ID/g | Tissue uptake (% ID/g) ([2]; Brain stem, 5 min post-injection): 0.48 ± 0.14 % ID/g | Tissue uptake (% ID/g) ([2]; Brain stem, 30 min post-injection): 0.52 ± 0.03 % ID/g | Tissue uptake (% ID/g) ([2]; Brain stem, 60 min post-injection): 0.68 ± 0.07 % ID/g | Tissue uptake (% ID/g) ([2]; Brain stem, 120 min post-injection): 0.71 ± 0.11 % ID/g | Tissue uptake (% ID/g) ([2]; Cerebellum, 5 min post-injection): 0.42 ± 0.28 % ID/g | Tissue uptake (% ID/g) ([2]; Cerebellum, 30 min post-injection): 0.52 ± 0.05 % ID/g | Tissue uptake (% ID/g) ([2]; Cerebellum, 60 min post-injection): 0.66 ± 0.07 % ID/g | Tissue uptake (% ID/g) ([2]; Cerebellum, 120 min post-injection): 0.77 ± 0.12 % ID/g | Tissue uptake (% ID/g) ([2]; Cortex, 5 min post-injection): 0.35 ± 0.25 % ID/g | Tissue uptake (% ID/g) ([2]; Cortex, 30 min post-injection): 0.51 ± 0.07 % ID/g | Tissue uptake (% ID/g) ([2]; Cortex, 60 min post-injection): 0.59 ± 0.13 % ID/g | Tissue uptake (% ID/g) ([2]; Cortex, 120 min post-injection): 0.67 ± 0.10 % ID/g | Tissue uptake (% ID/g) ([2]; Fat, 5 min post-injection): 0.05 ± 0.03 % ID/g | Tissue uptake (% ID/g) ([2]; Fat, 30 min post-injection): 0.16 ± 0.02 % ID/g | Tissue uptake (% ID/g) ([2]; Fat, 60 min post-injection): 0.15 ± 0.02 % ID/g | Tissue uptake (% ID/g) ([2]; Fat, 120 min post-injection): 0.14 ± 0.02 % ID/g | Tissue uptake (% ID/g) ([2]; Heart, 5 min post-injection): 1.02 ± 0.69 % ID/g | Tissue uptake (% ID/g) ([2]; Heart, 30 min post-injection): 0.55±0.02 % ID/g and 0.54 ± 0.03 % ID/g | Tissue uptake (% ID/g) ([2]; Heart, 60 min post-injection): 0.49 ± 0.02 % ID/g | Tissue uptake (% ID/g) ([2]; Heart, 120 min post-injection): 0.39 ± 0.07 % ID/g | Tissue uptake (% ID/g) ([2]; Hippocampus, 5 min post-injection): 0.32 ± 0.21 % ID/g | Tissue uptake (% ID/g) ([2]; Hippocampus, 30 min post-injection): 0.41 ± 0.03 % ID/g | Tissue uptake (% ID/g) ([2]; Hippocampus, 60 min post-injection): 0.54 ± 0.03 % ID/g | Tissue uptake (% ID/g) ([2]; Hippocampus, 120 min post-injection): 0.42 ± 0.28 % ID/g | Tissue uptake (% ID/g) ([2]; Kidney, 5 min post-injection): 1.33 ± 0.87 % ID/g | Tissue uptake (% ID/g) ([2]; Kidney, 30 min post-injection): 1.13±0.66 % ID/g and 1.13 ± 0.13 % ID/g | Tissue uptake (% ID/g) ([2]; Kidney, 60 min post-injection): 1.10 ± 0.08 % ID/g | Tissue uptake (% ID/g) ([2]; Kidney, 120 min post-injection): 1.02 ± 0.17 % ID/g | Tissue uptake (% ID/g) ([2]; Liver, 5 min post-injection): 2.30 ± 1.50 % ID/g | Tissue uptake (% ID/g) ([2]; Liver, 30 min post-injection): 2.51±0.10 % ID/g and 2.51 ± 0.20 % ID/g | Tissue uptake (% ID/g) ([2]; Liver, 60 min post-injection): 2.32 ± 0.10 % ID/g | Tissue uptake (% ID/g) ([2]; Liver, 120 min post-injection): 2.08 ± 0.47 % ID/g | Tissue uptake (% ID/g) ([2]; Lung, 5 min post-injection): 1.08 ± 0.74 % ID/g | Tissue uptake (% ID/g) ([2]; Lung, 30 min post-injection): 0.84±0.05 % ID/g and 0.84 ± 0.09 % ID/g | Tissue uptake (% ID/g) ([2]; Lung, 60 min post-injection): 0.68 ± 0.04 % ID/g | Tissue uptake (% ID/g) ([2]; Lung, 120 min post-injection): 0.43 ± 0.30 % ID/g | Tissue uptake (% ID/g) ([2]; Muscle, 5 min post-injection): 0.11 ± 0.07 % ID/g | Tissue uptake (% ID/g) ([2]; Muscle, 30 min post-injection): 0.19 ± 0.01 % ID/g | Tissue uptake (% ID/g) ([2]; Muscle, 60 min post-injection): 0.18 ± 0.05 % ID/g | Tissue uptake (% ID/g) ([2]; Muscle, 120 min post-injection): 0.15 ± 0.02 % ID/g | Tissue uptake (% ID/g) ([2]; Pancreas, 5 min post-injection): 0.72 ± 0.47 % ID/g | Tissue uptake (% ID/g) ([2]; Pancreas, 30 min post-injection): 0.66±0.04 % ID/g and 0.66 ± 0.08 % ID/g | Tissue uptake (% ID/g) ([2]; Pancreas, 60 min post-injection): 0.52 ± 0.05 % ID/g | Tissue uptake (% ID/g) ([2]; Pancreas, 120 min post-injection): 0.43 ± 0.06 % ID/g | in vivo defluorination (bone uptake 5 to 120 min) ([2]; in words): no defluorination | Tissue uptake (% ID/g) ([2]; Small intestine, 5 min post-injection): 0.75 ± 0.57 % ID/g | Tissue uptake (% ID/g) ([2]; Small intestine, 30 min post-injection): 1.40 ± 0.36 % ID/g | Tissue uptake (% ID/g) ([2]; Small intestine, 60 min post-injection): 1.42 ± 0.36 % ID/g | Tissue uptake (% ID/g) ([2]; Small intestine, 120 min post-injection): 0.87 ± 0.21 % ID/g | Tissue uptake (% ID/g) ([2]; Spleen, 5 min post-injection): 0.86 ± 0.58 % ID/g | Tissue uptake (% ID/g) ([2]; Spleen, 30 min post-injection): 0.54±0.03 % ID/g and 0.54 ± 0.06 % ID/g | Tissue uptake (% ID/g) ([2]; Spleen, 60 min post-injection): 0.47 ± 0.05 % ID/g | Tissue uptake (% ID/g) ([2]; Spleen, 120 min post-injection): 0.37 ± 0.05 % ID/g | Tissue uptake (% ID/g) ([2]; Striatum, 5 min post-injection): 0.32 ± 0.21 % ID/g | Tissue uptake (% ID/g) ([2]; Striatum, 30 min post-injection): 0.46 ± 0.05 % ID/g | Tissue uptake (% ID/g) ([2]; Striatum, 60 min post-injection): 0.43 ± 0.29 % ID/g | Tissue uptake (% ID/g) ([2]; Striatum, 120 min post-injection): 0.67 ± 0.07 % ID/g | Tissue uptake (% ID/g) ([2]; Thymus, 5 min post-injection): 0.23 ± 0.16 % ID/g | Tissue uptake (% ID/g) ([2]; Thymus, 30 min post-injection): 0.30 ± 0.03 % ID/g | Tissue uptake (% ID/g) ([2]; Thymus, 60 min post-injection): 0.30 ± 0.04 % ID/g | Tissue uptake (% ID/g) ([2]; Thymus, 120 min post-injection): 0.31 ± 0.05 % ID/g | rat brain uptake ([2]; 5 min post-injection): 0.48±0.06 ID %/g | rat brain uptake ([2]; 30 min post-injection): 0.48±0.02 ID %/g | rat brain uptake ([2]; 60 min post-injection): 0.60±0.04 ID %/g | rat brain uptake ([2]; 120 min post-injection): 0.65±0.03 ID %/g | Tissue uptake (% ID/g) ([2]; thalamus, 5 min post-injection): 0.42 ± 0.31 % ID/g | Tissue uptake (% ID/g) ([2]; thalamus, 30 min post-injection): 0.53 ± 0.03 % ID/g | Tissue uptake (% ID/g) ([2]; thalamus, 60 min post-injection): 0.64 ± 0.06 % ID/g | Tissue uptake (% ID/g) ([2]; thalamus, 120 min post-injection): 0.70 ± 0.15 % ID/g | Tissue uptake (% ID/g) ([2]; total brain, 5 min post-injection): 2.65 ± 1.63 % ID/g | Tissue uptake (% ID/g) ([2]; total brain, 30 min post-injection): 3.41 ± 0.29 % ID/g | Tissue uptake (% ID/g) ([2]; total brain, 60 min post-injection): 4.12 ± 0.70 % ID/g | Tissue uptake (% ID/g) ([2]; total brain, 120 min post-injection): 4.58 ± 0.92 % ID/g | radiometabolites in macaque plasma ([3]; 5, 15, 30, and 60 min post injection, in words): No major metabolite was detected | percentage of the parental radiotracer of total radioactivity ([3]; 5 min post-injection): 96% | percentage of the parental radiotracer of total radioactivity ([3]; 15 min post-injection): 96% | percentage of the parental radiotracer of total radioactivity ([3]; 30 min post-injection): 94% | percentage of the parental radiotracer of total radioactivity ([3]; 60 min post-injection): 88%
